Data as given in patent publication US10350176B2 (priority 2013, dated 2019).
Where two headings read alike, the source gives them in different places.

What was measured:
[1] = system: Leishmania major; settings: primary screening, library compounds at 1 μM
Experimental: The compounds were screened for growth inhibition of the parasite Leishmania major.
The compounds were reformatted into 384-well polypropylene plates (Corning, cat. No. 3657) at a final concentration of 1 μM in DMSO and used to screen the growth inhibition of the parasite Leishmania major.

[2] = system: Leishmania major in promastigote form; test: Promastigote growth inhibition assay (CellTiter-Blue); type: cell-based; settings: 48 hours incubation; number of viable promastigotes reduced by 50%; read-out: L. major, in promastigote form (IC50)
Experimental: Antiparasitic activity in culture of promastigotes (insect form) was measured using a standard microdiluting method, determining the minimum inhibitory concentration (MIC) of the test sample, which leads to inhibition of parasite growth.
For promastigote growth inhibition assays the subculture 2 of L. major was cultured in Schneider's insect medium (Sigma, St. Louis, Mo., cat. No. S0146) supplemented with 50 μm/ml gentamicin (Sigma, St. Louis, Mo., cat. No. G1272), 63.7 μg/ml penicillin G (Sigma, St. Louis, Mo., cat. No. PENK), 100 μg/ml streptomycin (Sigma, St. Louis, Mo., cat. no. S6501), 2% human urine and 10% heat-inactivated fetal bovine serum (Sigma, St. Louis, Mo., cat. No. F2442).
Leishmania promastigotes in the logarithmic growth phase were dispensed into black 384-well plates (Corning, New York, N.Y., cat. No. 3571) at a concentration of 15,000 parasites/μl/well using a Multidrop Combi instrument (Thermo Fisher Scientific Inc., Waltham, Mass.). […] The metabolic capacity of the parasite was measured after 2.5 hours of incubation using the CellTiter-Blue® Reagent (Promega Corporation, Madison, Wis., cat. No. G8082) using EnVision Multilabel Reader (PerkinElmer Inc., Waltham, Mass.). Data were analyzed using non-linear regression (log (inhibitor) vs. response-variable slope). […]

[3] = system: L. major, antimony salts resistant, in promastigote form; test: Promastigote growth inhibition assay, strain resistant to antimony salts; type: cell-based, Leishmania major; settings: 48 hours incubation
Experimental: Leishmania promastigotes in the logarithmic growth phase were dispensed into black 384-well plates (Corning, New York, N.Y., cat. No. 3571) at a concentration of 15,000 parasites/μl/well using a Multidrop Combi instrument (Thermo Fisher Scientific Inc., Waltham, Mass.). Immediately thereafter DPI (1 nM-500 nM) or amphotericin B (20 nM-10 μM) were added using “pitool” connected to JANUS® Automated Workstation (PerkinElmer Inc., Waltham, Mass.) and incubated for 48 hours. The metabolic capacity of the parasite was measured after 2.5 hours of incubation using the CellTiter-Blue® Reagent (Promega Corporation, Madison, Wis., cat. No. G8082) using EnVision Multilabel Reader (PerkinElmer Inc., Waltham, Mass.). Data were analyzed using non-linear regression (log (inhibitor) vs. response-variable slope). Preparation of the graphs and IC50 calculation were performed using GraphPad Prism 5 software (GraphPad Software, USA). The IC50 value was calculated by non-linear regression method as the concentration of DPI in which the number of viable promastigotes was reduced by 50% (values given below in Table 1).

[4] = system: Leishmania major in amastigote form; test: Cytotoxic effect on intracellular amastigotes in macrophages (flow cytometry, cell smears); type: cell-based; settings: concentration at which number of infected macrophages decreased by 50%; 48 hours co-incubation
Experimental: Macrophage precursors were isolated from bone marrow and incubated for 7 days at 37° C. and 5% CO2 in DMEM supplemented with supernatant of L929 cells (20 percent by volume) containing M-CSF. After differentiation the macrophages were infected with E-GFP-L. major in stationary phase of growth at a ratio of 1:10. Then the macrophages were incubated in DMEM supplemented with the supernatant of L929 cells (20% volume) containing M-CSF at 37° C. and 5% CO2. After 24 hours, the medium containing the extracellular parasites was discarded and the plates were washed 3 times with HBSS medium (Hanks' Balanced Salt Solution, Sigma, St. Louis, Mo., cat. No. H9269). […]
The samples were analyzed on a FACSCalibur flow cytometer (Becton, Dickinson and Company, Franklin Lakes, N.J.) using CellQuest Pro software (Becton, Dickinson and Company, Franklin Lakes, N.J.). […] The results were measured for 10,000 macrophages in the first experiment and for 20,000 macrophages in the second experiment. […]
Smears were stained with Giemsa (Sigma, St. Louis, Mo., cat. No. 11700) and analysed by fluorescence microscopy Leica6000DM (Leica Microsystems GmbH, Wetzlar, Germany) at a magnification 400×. The total number of parasites in 500 macrophages was determined. […]

[5] = system: CCD 841 (intestinal epithelial cells); settings: DPI 9.8 nM-1.25 μM; 48 hours incubation
Experimental: (§1) Human cells CCD 841 (intestinal epithelial cells) and MRC5 (fetal lung fibroblasts) in appropriate growth media were dispensed into black 384-well plates (Corning, cat. No. 3571) at a density of 15,000 cells/25 μl/well using a Multidrop Combi (Thermo Scientific). After 48 hours incubation at 37° C. and 5% CO2, cell viability was determined using a commercial assay CellTiter Blue Cell Viability Assay (Promega, cat. No. G8082). […] Fluorescence intensity was measured by the detector (reader) EnVision (Perkin Elmer), and measured data were analysed using the software Prism5 (GraphPad Software, Inc.).

[6] = system: MRC5 (fetal lung fibroblasts); settings: DPI 9.8 nM-1.25 μM; 48 hours incubation
Experimental: as §1

[7] = system: Plasmodium falciparum; settings: kills Plasmodium falciparum; Yuan et al. Nat Chem Biol 2009; cited from earlier work

| SMILES | growth inhibition of the parasite Leishmania major [1] | growth inhibition of the parasite Leishmania major ([1]; listed as diphenyleneiodonium (DPI)) | IC50 [2] [nM] | IC50 [3] [nM] | L. major, in intracellular amastigote form (LD50, μM) [4] [µM] | viability of human CCD 841 cells [5] | viability of human MRC5 cells [6] | IC50 [7] [nM] |
| --- | --- | --- | --- | --- | --- | --- | --- | --- |
| c1ccc2c(c1)[I+]c1ccccc1-2 [DPI, [1,1′-biphenyl]-2,2′-diyliodonium] | potent inhibitor of the growth of Leishmania major | effective inhibitor | 10 | 15 | 0.066 | no negative effect on the viability | no negative effect on the viability | 0.06 to 1 |
| C[C@@H]1[C@H](O)[C@@H](C)/C=C/C=C/C=C/C=C/C=C/C=C/C=C/[C@H](O[C@@H]2O[C@H](C)[C@@H](O)[C@H](N)[C@@H]2O)C[C@@H]2O[C@](O)(C[C@@H](O)C[C@@H](O)[C@H](O)CC[C@@H](O)C[C@@H](O)CC(=O)O[C@H]1C)C[C@H](O)[C@H]2C(=O)O [amphotericin B, reference compound] |  |  | 39 | 43 | 0.143 |  |  |  |
